Source: patent US20170334899A1, “AMINO-SUBSTITUTED ISOTHIAZOLES” (Bayer Pharma Aktiengesellschaft, priority 2014, published 2017)
Counter-ions that a name gives are not always drawn.

Legend:
[1] = system: human cervical tumor cell line HeLa (ATCC CCL-2); assay: SAC-Formation - Nocodazole-Induced Assay; type: cell-based; details: 24 h, HeLa cells, nocodazole 0.1 μg/ml together with test compound, decrease of mitotic cells (phospho-histone H3 Ser10)
Summary of the method: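 HeLa cells, plated overnight, were treated 24 h at 37 °C with nocodazole (0.1 μg/ml final) plus test compound (0.005–20 μM, 0.5% DMSO) added at the same time. After fixation, anti-phospho-histone H3 Ser10 and Hoechst staining gave the mitotic cell fraction by imaging. Values came from four-parameter Hill fits.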

[2] = target: T1, CDK2/CycE (Homo sapiens, UniProt P24941); assay: CDK2/CycE kinase assay (TR-FRET); type: biochemical; details: avg, read-out: CDK2 avg (IC50 [mol/l])
T1 construct: GST; purchased ProQinase GmbH (Freiburg, Germany); host or cells: insect cells (Sf9)
Summary of the method: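 GST-tagged human CDK2 and CycE from Sf9 cells, preincubated 15 min with compound, then 25 min at 22° C. with 10 μM ATP and 0.75 μM biotinylated Rb-derived peptide (final). Phospho-substrate read by TR-FRET (anti-pRB pSer807/pSer811, Eu anti-mouse IgG, streptavidin-XL665), 665/620 nm ratio, normalised to no-inhibitor and no-enzyme controls.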

| Structure (SMILES) | IC50 ([1]; Homo sapiens, HeLa) | IC50 [2] | IC50 [1] |
| --- | --- | --- | --- |
| Cc1nsc(Nc2cnc(C(F)(F)F)cn2)c1C(=O)Nc1ccc(OC2CCN(CC(F)(F)F)CC2)c(F)c1 [Example 163, N-(3-fluoro-4-{[1-(2,2,2-trifluoroethyl)piperidin-4-yl]oxy}phenyl)-3-methyl-5-{[5-(trifluoromethyl)pyrazin-2-yl]amino}-1,2-thiazole-4-carboxamide] | 61 nM | > 20000 nM | – |
| Cc1nsc(Nc2cnc(C(F)(F)F)cn2)c1C(=O)Nc1ccc(OC2CCN(CC(F)F)CC2)c(F)c1 [Example 164, N-(4-{[1-(2,2-difluoroethyl)piperidin-4-yl]oxy}-3-fluorophenyl)-3-methyl-5-{[5-(trifluoromethyl)pyrazin-2-yl]amino}-1,2-thiazole-4-carboxamide] | 84 nM | > 20000 nM | – |
| Cc1nsc(Nc2cnc(C(F)(F)F)cn2)c1C(=O)Nc1ccc(C(=O)NC2CCN(CC(F)(F)F)CC2)cc1 [Example 165, 3-methyl-N-(4-{[1-(2,2,2-trifluoroethyl)piperidin-4-yl]carbamoyl}phenyl)-5-{[5-(trifluoromethyl)pyrazin-2-yl]amino}-1,2-thiazole-4-carboxamide] | 240 nM | > 20000 nM | – |
| Cc1nsc(Nc2cncc(C(F)(F)F)n2)c1C(=O)Nc1ccc(OCC2CCCN(C(=O)OC(C)(C)C)C2)nc1 (centres unmarked) [Example 166, tert-butyl 3-{[(5-{[(3-methyl-5-{[6-(trifluoromethyl)pyrazin-2-yl]amino}-1,2-thiazol-4-yl)carbonyl]amino}pyridin-2-yl)oxy]methyl}piperidine-1-carboxylate] | 52 nM | > 20000 nM | – |
| Cc1nsc(Nc2cncc(C(F)(F)F)n2)c1C(=O)Nc1ccc(C(=O)NC2CCN(CC(F)(F)F)CC2)cc1 [Example 167, 3-methyl-N-(4-{[1-(2,2,2-trifluoroethyl)piperidin-4-yl]carbamoyl}phenyl)-5-{[6-(trifluoromethyl)pyrazin-2-yl]amino}-1,2-thiazole-4-carboxamide] | 91 nM | > 20000 nM | – |
| Cc1nsc(Nc2cncc(C(F)(F)F)n2)c1C(=O)Nc1ccc(F)c(OC2CCN(C(=O)OC(C)(C)C)CC2)c1 [Example 168, tert-butyl 4-(2-fluoro-5-{[(3-methyl-5-{[6-(trifluoromethyl)pyrazin-2-yl]amino}-1,2-thiazol-4-yl)carbonyl]amino}phenoxy)piperidine-1-carboxylate] | 17 nM | > 20000 nM | – |
| Cc1nsc(Nc2cnc3ccccc3n2)c1C(=O)Nc1ccc(N2CCOCC2)nc1 [Example 169, 3-methyl-N-[6-(morpholin-4-yl)pyridin-3-yl]-5-(quinoxalin-2-ylamino)-1,2-thiazole-4-carboxamide] | 2500 nM | > 20000 nM | – |
| Cc1nsc(Nc2ccc(C#N)cn2)c1C(=O)Nc1ccc(N[C@@H](C)C(=O)OC(C)(C)C)nc1 [Example 170, tert-butyl N-{5-[({5-[(5-cyanopyridin-2-yl)amino]-3-methyl-1,2-thiazol-4-yl}carbonyl)amino]pyridin-2-yl}alaninate] | 2300 nM | > 20000 nM | – |
| Cc1nsc(Nc2ccc(C#N)cn2)c1C(=O)Nc1ccc(NC2CCCN(C(=O)OC(C)(C)C)C2)nc1 (centres unmarked) [Example 171, tert-butyt 3-({5-[({5-[(5-cyanopyridin-2-yl)amino]-3-methyl-1,2-thiazol-4-yl}carbonyl)amino]pyridin-2-yl}amino)piperidine-1-carboxylate] | 71 nM | > 20000 nM | – |
| Cc1nsc(Nc2cnc3ccccc3n2)c1C(=O)Nc1ccc(NC2CC2)nc1 [Example 172, N-[6-(cyclopropylamino)pyridin-3-yl]-3-methyl-5-(quinoxalin-2-ylamino)-1,2-thiazole-4-carboxamide] | 3500 nM | > 20000 nM | – |
| COc1ccc(NC(=O)c2c(C)nsc2Nc2ccc(C#N)cn2)c(N2CCOCC2)n1 [Example 173, 5-[(5-cyanopyridin-2-yl)amino]-N-[6-methoxy-2-(morpholin-4-yl)pyridin-3-yl]-3-methyl-1,2-thiazole-4-carboxamide] | 1900 nM | > 20000 nM | – |
| Cc1nsc(Nc2cnc(C(F)(F)F)cn2)c1C(=O)Nc1ccc(F)c(OCC2CCCN(CC(F)F)C2)c1 (centres unmarked) [Example 335, N-(3-{[1-(2,2-difluoroethyl)piperidin-3-yl]methoxy}-4-fluorophenyl)-3-methyl-5-{[5-(trifluoromethyl)pyrazin-2-yl]amino}-1,2-thiazole-4-carboxamide] | – | ≥ 20000 nM | 55 nM |
| Cc1nsc(Nc2cnc(C(F)(F)F)cn2)c1C(=O)Nc1ccc(OC2CCN(CCC(F)(F)F)CC2)nc1 [Example 426, 3-Methyl-5-{[5-(trifluoromethyl)pyrazin-2-yl]amino}-N-(6-{[1-(3,3,3-trifluoro-propyl)piperidin-4-yl]oxy}pyridin-3-yl)-1,2-thiazole-4-carboxamide, Salt with Hydrochloric Acid] | – | ≥ 20000 nM | 30 nM |
